Measurements as given in patent publication US20230277669A1, “USES OF UROLITHINS” (Amazentis SA, priority 2022, published 2023).

System: CD8+ T cells
Experiment: In vitro stimulation of CD3+ T cells with aCD3/aCD28 beads in presence of UA
Type: cell-based, FVB mice
Conditions: 48 h, ICG001 with UA
Method: (FIG. 2A) Scheme of CD3+ T-cell activation and analysis for various timepoints. (FIG. 2B) Reduced effector molecule expression on in vitro treated cells (n=3 pooled from three independent experiments). Isolated T-cells were stimulated for 48 h at the presence of UA or DMSO in the indicated doses. Data are mean ± SD, *p < 0.05 by two-sided t-test. (FIG. 2C) Reduced effector molecule expression on in vitro treated cells (n=3 pooled from three independent experiments). Isolated T-cells were stimulated for 48 h at the presence of UA or DMSO in the indicated doses. Data are mean ± SD, *p < 0.05 by two-sided t-test. (FIG. 2D) Quantification of T memory stem cells (TSCM: CD44^-CD62L^+Sca1^hi) after 24 h, 48 h and 96 h post stimulation with aCD3/aCD28 stimulation beads as indicated in (A) (n=4 pooled from four independent experiments). Data are mean ± SD, statistical analysis was performed via two-sided t-test (*p < 0.05; **p < 0.01; n.s. not significant). (FIG. 2E) Mitochondrial membrane potential within naïve CD62L^+CD44^-CD8^+ T cells, with TMRM^lo representing cells with low mitochondrial membrane potential. Cells were stimulated for 48 h as depicted in (A). Data are mean ± SD, n=4; ***p <0.001 by two-sided t-test. Experiment was repeated twice in independent experiments. (FIG. 2F) Representative histogram and quantification of memory marker CD95 expression in CD62L^+CD44^-CD8^+ cells, 48 hours after in vitro stimulation. Data are mean ± SD; n=5; ****p < 0.0001 by two-sided t-test. Data depicts one of two independent experiments. (FIG. 2G) Analysis of TIL of UA-fed mice, treated as depicted in FIG. 1J. Percentage of TSCM within CD8+ (G; n=7), as well as TCF1 (H; n=7) PD1^hi,Tim3^hi and CTLA4hi (I-K, all n=6) in the TIL CD8+ population are shown. Data are mean ± SD, statistical analysis was performed via two-sided t-test (*p < 0.05; **p < 0.01;, ***p <0.001.). Data depicts one of two independent experiments. (FIG. 2H) The same experiment as FIG. 2G with TCF1 (n=7) in the TIL CD8+ population. (FIG. 2I) The same experiment as FIG. 2G with PD1^hi (n=6) in the TIL CD8+ population. (FIG. 2J) The same experiment as FIG. 2G with Tim3^hi (n=6) in the TIL CD8+ population. (FIG. 2K) The same experiment as FIG. 2G with CTLA4hi (n=6) in the TIL CD8+ population. (FIG. 2L) Flow cytometry readout of ex vivo cytokine release of previously isolated TIL upon re-stimulation with PMA/ionomycin. Data are mean ± SD with n=7 per group. Statistical analysis was performed by two-sided t-test (**p < 0.01). One out of two independent experiments are shown. (FIG. 2M) Flow cytometry readout of ex vivo cytokine release of previously isolated TIL upon re-stimulation with PMA/ionomycin. Data are mean ± SD with n=7 per group. Statistical analysis was performed by two-sided t-test (**p < 0.01). One out of two independent experiments are shown.
(FIG. 4A) Scheme of CD3+ T-cell activation and analysis for various timepoints in order to investigate mitophagy induction in vitro. (FIG. 4B) Analysis of mitochondrial membrane potential within CD8+ T cells, with TMRM^lo representing cells with low mitochondrial membrane potential. Analysis was performed six hours after stimulation with aCD/aCD28 stimulation beads at the presence of the indicated treatments. N=4 per group, *p < 0.05 by Mann Whitney U test. One of two independent experiments are shown. (FIG. 4C) Representative flow histogram and quantification of lysosome formation in CD8+ cells six hours after in vitro stimulation. MFI shown relative to DMSO controls, n=4. Data are normalised mean ± SD, statistical analysis by two-sided t-test. One out of two independent experiments are shown. (FIG. 4D) Mitotracker Red staining of in vitro stimulated CD8+ cells after 24 hours of Urolithin A (UA25 n=6; UA50 n=6) or vehicle control treatment (DMSO: n=4). A representative flow histogram depicting identification of Mitotracker^hi cells is shown. […]

Question: What does the source list for `O=C1[C@H](Cc2ccc(O)cc2)N2C(=O)CCN(C(=O)NCc3ccccc3)[C@H]2CN1Cc1cccc2ccccc12` [ICG001, reference compound]?
Answer: UA-induced TCF1 expression: abrogated; UA-induced TSCM formation: abrogated
